Experimental findings from US7795290B2 (Genentech, Inc., priority 2004, dated 2010) are described below.

T1 sequence (P31749 whole entry): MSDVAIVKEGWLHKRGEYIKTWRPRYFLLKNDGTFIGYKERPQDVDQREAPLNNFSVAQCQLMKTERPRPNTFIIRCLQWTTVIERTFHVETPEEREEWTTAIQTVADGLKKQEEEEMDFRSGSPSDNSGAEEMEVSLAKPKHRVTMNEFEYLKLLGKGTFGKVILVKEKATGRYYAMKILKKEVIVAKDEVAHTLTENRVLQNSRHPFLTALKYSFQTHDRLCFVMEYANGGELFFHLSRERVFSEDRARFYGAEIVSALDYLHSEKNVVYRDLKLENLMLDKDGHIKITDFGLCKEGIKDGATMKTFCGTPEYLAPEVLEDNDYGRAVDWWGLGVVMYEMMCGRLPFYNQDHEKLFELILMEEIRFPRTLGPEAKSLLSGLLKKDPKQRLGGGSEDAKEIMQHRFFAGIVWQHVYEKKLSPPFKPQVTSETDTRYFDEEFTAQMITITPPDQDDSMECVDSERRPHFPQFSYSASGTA

This assay addresses T1, AKT1 (Homo sapiens, UniProt P31749).
T1 construct: purchased Upstate 14-276
In words: HTS ATP-utilizing enzyme assay, off-chip mobility-shift (Caliper HTS 250). The conditions noted are these: kinase named = inhibitory activity/selectivity; test compound 10 μM; active = greater than three-sigma from mean. In kind it is biochemical. The procedure, abridged:
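AKT1 activity was measured by off-chip mobility shift (Caliper HTS 250) as the ratio of peptide substrate to phosphorylated product. Test compound was at 10 μM, with 2.5 h incubation at 20–22° C. EDTA wells served as 100% control and DMSO wells as 0%. Hits were called at three-sigma limits.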
For `O=C(c1ccco1)N(CCCN1CCOCC1)c1nc(-c2ccccc2)cs1` [N-(3-morpholinopropyl)-N-(4-phenylthiazol-2-yl)furan-2-carboxamide], the Activity result is given as “AKT1”. In the case of `O=C(c1cccs1)N(CCCN1CCOCC1)c1nc(-c2ccccc2)cs1` [N-(3-morpholinopropyl)-N-(4-phenylthiazol-2-yl)thiophene-2-carboxamide], the Activity entry is “AKT1”. `O=C(c1cccs1)N(CCCN1CCOCC1)c1nc(-c2cc3ccccc3[nH]2)cs1` [N-(4-(1H-indol-2-yl)thiazol-2-yl)-N-(3-morpholinopropyl)thiophene-2-carboxamide]: the Activity result is recorded as “AKT1”. With `O=C(c1cccs1)N(CCCN1CCOCC1)c1nc(-c2ccc3c(c2)OCCO3)cs1` [N-(4-(2,3-dihydrobenzo[b][1,4]dioxin-6-yl)thiazol-2-yl)-N-(3-morpholinopropyl)thiophene-2-carboxamide] the entry was “AKT1”; with `O=C(c1cccs1)N(CCCN1CCOCC1)c1nc(-c2ccc(Cl)cc2Cl)cs1` [N-(4-(2,4-dichlorophenyl)thiazol-2-yl)-N-(3-morpholinopropyl)thiophene-2-carboxamide], “AKT1”. With `COc1ccc(-c2csc(N(CCCN3CCOCC3)C(=O)c3cccs3)n2)c(OC)c1` [N-(4-(2,4-dimethoxyphenyl)thiazol-2-yl)-N-(3-morpholinopropyl)thiophene-2-carboxamide] the entry was “AKT1”. With `Cc1ccc(-c2csc(N(CCCN3CCOCC3)C(=O)c3cccs3)n2)c(C)c1` [N-(4-(2,4-dimethylphenyl)thiazol-2-yl)-N-(3-morpholinopropyl)thiophene-2-carboxamide] the entry was “AKT1”.

As for `COc1ccc(OC)c(-c2csc(N(CCCN3CCN(C)CC3)C(=O)c3ccccc3)n2)c1` [N-(4-(2,5-dimethoxyphenyl)thiazol-2-yl)-N-(3-(4-methylpiperazin-1-yl)propyl)benzamide], the Activity result is “AKT1”.

On to `COc1ccc(OC)c(-c2csc(N(CCCN3CCN(C)CC3)C(=O)c3cccs3)n2)c1` [N-(4-(2,5-dimethoxyphenyl)thiazol-2-yl)-N-(3-(4-methylpiperazin-1-yl)propyl)thiophene-2-carboxamide], for which the Activity entry was “AKT1”.

`COc1ccc(OC)c(-c2csc(N(CCCN3CCCCC3)C(=O)c3ccccc3)n2)c1` [N-(4-(2,5-dimethoxyphenyl)thiazol-2-yl)-N-(3-(piperidin-1-yl)propyl)benzamide]: the Activity result was “AKT1”. With `COc1ccc(OC)c(-c2csc(N(CCCN3CCCCC3)C(=O)c3ccco3)n2)c1` [N-(4-(2,5-dimethoxyphenyl)thiazol-2-yl)-N-(3-(piperidin-1-yl)propyl)furan-2-carboxamide] the entry was “AKT1”; with `COc1ccc(OC)c(-c2csc(N(CCCN3CCCCC3)C(=O)c3cccs3)n2)c1` [N-(4-(2,5-dimethoxyphenyl)thiazol-2-yl)-N-(3-(piperidin-1-yl)propyl)thiophene-2-carboxamide], “AKT1”; with `COc1ccc(OC)c(-c2csc(N(CCCN3CCCC3)C(=O)c3ccccc3)n2)c1` [N-(4-(2,5-dimethoxyphenyl)thiazol-2-yl)-N-(3-(pyrrolidin-1-yl)propyl)benzamide], “AKT1”. With `COc1ccc(OC)c(-c2csc(N(CCCN3CCCC3)C(=O)c3ccco3)n2)c1` [N-(4-(2,5-dimethoxyphenyl)thiazol-2-yl)-N-(3-(pyrrolidin-1-yl)propyl)furan-2-carboxamide] the entry was “AKT1”. With `COc1ccc(OC)c(-c2csc(N(CCCN3CCCC3)C(=O)c3cccs3)n2)c1` [N-(4-(2,5-dimethoxyphenyl)thiazol-2-yl)-N-(3-(pyrrolidin-1-yl)propyl)thiophene-2-carboxamide] the entry was “AKT1”; with `COc1ccc(OC)c(-c2csc(N(CCCN3CCOCC3)C(=O)c3ccco3)n2)c1` [N-(4-(2,5-dimethoxyphenyl)thiazol-2-yl)-N-(3-morpholinopropyl)furan-2-carboxamide], “AKT1”; with `COc1ccc(OC)c(-c2csc(N(CCCN3CCOCC3)C(=O)c3cccs3)n2)c1` [N-(4-(2,5-dimethoxyphenyl)thiazol-2-yl)-N-(3-morpholinopropyl)thiophene-2-carboxamide], “AKT1”. `COc1ccc(-c2csc(N(CCCN3CCOCC3)C(=O)c3cccs3)n2)c(OC)n1` [N-(4-(2,6-dimethoxypyridin-3-yl)thiazol-2-yl)-N-(3-morpholinopropyl)thiophene-2-carboxamide]: the Activity entry was “AKT1”.

For the compound `NC(=O)CNC(=O)CCCN(C(=O)c1cccs1)c1nc(-c2cc3ccccc3o2)cs1` [N-(4-(2-amino-2-oxoethylamino)-4-oxobutyl)-N-(4-(benzofuran-2-yl)thiazol-2-yl)thiophene-2-carboxamide], the Activity entry is “AKT1”.

`O=C(c1cccs1)N(CCCN1CCOCC1)c1nc(-c2ccccc2Cl)cs1` [N-(4-(2-chlorophenyl)thiazol-2-yl)-N-(3-morpholinopropyl)thiophene-2-carboxamide]: the Activity result was “AKT1”.

As to `O=C(c1cccs1)N(CCCN1CCOCC1)c1nc(-c2ccccc2F)cs1` [N-(4-(2-fluorophenyl)thiazol-2-yl)-N-(3-morpholinopropyl)thiophene-2-carboxamide], the Activity entry was “AKT1”. With `COc1ccccc1-c1csc(N(CCCN2CCOCC2)C(=O)c2cccs2)n1` [N-(4-(2-methoxyphenyl)thiazol-2-yl)-N-(3-morpholinopropyl)thiophene-2-carboxamide] the entry was “AKT1”; with `O=C(c1cccs1)N(CCCN1CCOCC1)c1nc(-c2ccc(Cl)c(Cl)c2)cs1` [N-(4-(3,4-dichlorophenyl)thiazol-2-yl)-N-(3-morpholinopropyl)thiophene-2-carboxamide], “AKT1”. With `O=C(c1cccs1)N(CCCN1CCOCC1)c1nc(-c2ccc(F)c(F)c2)cs1` [N-(4-(3,4-difluorophenyl)thiazol-2-yl)-N-(3-morpholinopropyl)thiophene-2-carboxamide] the entry was “AKT1”; with `COc1ccc(-c2csc(N(CCN3CCOCC3)C(=O)c3cccs3)n2)cc1OC` [N-(4-(3,4-dimethoxyphenyl)thiazol-2-yl)-N-(2-morpholinoethyl)thiophene-2-carboxamide], “AKT1”.

Regarding `COc1ccc(-c2csc(N(CCCN3CCCC3=O)C(=O)c3cccs3)n2)cc1OC` [N-(4-(3,4-dimethoxyphenyl)thiazol-2-yl)-N-(3-(2-oxopyrrolidin-1-yl)propyl)thiophene-2-carboxamide], the Activity result is “AKT1”. With `COc1ccc(-c2csc(N(CCCN3CCN(C)CC3)C(=O)c3cccs3)n2)cc1OC` [N-(4-(3,4-dimethoxyphenyl)thiazol-2-yl)-N-(3-(4-methylpiperazin-1-yl)propyl)thiophene-2-carboxamide] the entry was “AKT1”; with `COc1ccc(-c2csc(N(CCCN3CCCCC3)C(=O)c3cccs3)n2)cc1OC` [N-(4-(3,4-dimethoxyphenyl)thiazol-2-yl)-N-(3-(piperidin-1-yl)propyl)thiophene-2-carboxamide], “AKT1”; with `COc1ccc(-c2csc(N(CCCN3CCOCC3)C(=O)c3ccccc3)n2)cc1OC` [N-(4-(3,4-dimethoxyphenyl)thiazol-2-yl)-N-(3-morpholinopropyl)benzamide], “AKT1”.

For the compound `COc1ccc(-c2csc(N(CCCN3CCOCC3)C(=O)C3CCC3)n2)cc1OC` [N-(4-(3,4-dimethoxyphenyl)thiazol-2-yl)-N-(3-morpholinopropyl)cyclobutanecarboxamide], the Activity entry is “AKT1”. With `COc1ccc(-c2csc(N(CCCN3CCOCC3)C(=O)C3CCCC3)n2)cc1OC` [N-(4-(3,4-dimethoxyphenyl)thiazol-2-yl)-N-(3-morpholinopropyl)cyclopentanecarboxamide] the entry was “AKT1”; with `COc1ccc(-c2csc(N(CCCN3CCOCC3)C(=O)c3ccco3)n2)cc1OC` [N-(4-(3,4-dimethoxyphenyl)thiazol-2-yl)-N-(3-morpholinopropyl)furan-2-carboxamide], “AKT1”; with `COc1ccc(-c2csc(N(CCCN3CCOCC3)C(=O)c3ccccn3)n2)cc1OC` [N-(4-(3,4-dimethoxyphenyl)thiazol-2-yl)-N-(3-morpholinopropyl)picolinamide], “AKT1”.

In the case of `COc1ccc(-c2csc(N(CCCN3CCOCC3)C(=O)c3cccs3)n2)cc1OC` [N-(4-(3,4-dimethoxyphenyl)thiazol-2-yl)-N-(3-morpholinopropyl)thiophene-2-carboxamide], the Activity result is “AKT1”. With `COc1ccc(-c2csc(N(CCCc3ccccc3)C(=O)c3cccs3)n2)cc1OC` [N-(4-(3,4-dimethoxyphenyl)thiazol-2-yl)-N-(3-phenylpropyl)thiophene-2-carboxamide] the entry was “AKT1”. As for `COc1ccc(-c2csc(N(CCCCCN3CCOCC3)C(=O)c3cccs3)n2)cc1OC` [N-(4-(3,4-dimethoxyphenyl)thiazol-2-yl)-N-(5-morpholinopentyl)thiophene-2-carboxamide], the Activity result is “AKT1”. With `CN(C)CCOc1cccc(-c2csc(N(CCCN3CCOCC3)C(=O)c3cccs3)n2)c1` [N-(4-(3-(2-(dimethylamino)ethoxy)phenyl)thiazol-2-yl)-N-(3-morpholinopropyl)thiophene-2-carboxamide] the entry was “AKT1”; with `CN(C)CCCOc1cccc(-c2csc(N(CCCN3CCOCC3)C(=O)c3cccs3)n2)c1` [N-(4-(3-(3-(dimethylamino)propoxy)phenyl)thiazol-2-yl)-N-(3-morpholinopropyl)thiophene-2-carboxamide], “AKT1”; with `O=C(c1cccs1)N(CCCN1CCOCC1)c1nc(-c2cc(-c3ccc(Cl)cc3)no2)cs1` [N-(4-(3-(4-chlorophenyl)isoxazol-5-yl)thiazol-2-yl)-N-(3-morpholinopropyl)thiophene-2-carboxamide], “AKT1”.
